Laboratory results as given in US9730445B2, “Herbicidal compositions comprising 4-amino-3-chloro-5-fluoro-6-(4-chloro-2-fluoro-3-methoxyphenyl) pyridine-2-carboxylic acid or a derivative thereof and fungicides” (DOW AGROSCIENCES LLC, priority 2013, dated 2017).

What was measured:
Assay in all cases: Postemergence foliar-applied weed control, direct-seeded rice (greenhouse)
IPOHE = format: in vivo, Ipomoea hederacea (L.) Jacq. (ivyleaf morningglory)
Procedure: (§1) Seeds or nutlets of the desired test plant species were planted in a soil matrix prepared by mixing aloam or sandy loam soil (e.g., 28.6 percent silt, 18.8 percent clay, and 52.6 percent sand, with a pH of about 5.8 and an organic matter content of about 1.8 percent) and calcareous grit in an 80 to 20 ratio. The soil matrix was contained in plastic pots with a volume of 1 quart and a surface area of 83.6 square centimeters (cm^2). […] The plants were grown for 8-22 days in a greenhouse with an approximate 14 hour (h) photoperiod which was maintained at about 29° C. during the day and 26° C. during the night. Nutrients (Peters Excel® 15-5-15 5-Ca 2-Mg and iron chelate) were applied in the irrigation solution as needed and water was added on a regular basis. Supplemental lighting was provided with overhead metal halide 1000-Watt lamps as necessary. The plants were employed for testing when they reached the first through fourth true leaf stage.
(§2) Treatments consisted of the acid or esters of 4-amino-3-chloro-5-fluoro-6-(4-chloro-2-fluoro-3-methoxy-phenyl)pyridine-2-carboxylic acid (Compound A), each formulated as an SC (suspension concentrate), and various fungicidal components alone and in combination. Forms of compound A were applied on an acid equivalent basis.
(§3) For treatments comprised of formulated compounds, measured amounts of compounds were placed individually in 25 mL glass vials and diluted in a volume of 1.25% volume per volume (v/v) Agri-Dex® crop oil concentrate to obtain 12× stock solutions. […] Application solutions were prepared by adding an appropriate amount of each stock solution (e.g., 1 mL) and diluted to the appropriate final concentrations with the addition of […] of an aqueous mixture of 1.25% (v/v) crop oil concentrate so that the final spray solutions contained 1.25+/−0.05% (v/v) crop oil concentrate.
(§4) For treatments comprised of technical compounds, weighed amounts can be placed individually in 25 mL glass vials and dissolved in a volume of 97:3 volume per volume (v/v) acetone/dimethyl sulfoxide (DMSO) to obtain 12× stock solutions. […] When technical materials are used, the concentrated stock solutions can be added to the spray solutions so that the final acetone and DMSO concentrations of the application solutions are 16.2% and 0.5%, respectively.
(§5) As required, additional water and/or 97:3 v/v acetone/DMSO was added to individual application solutions so that the final acetone and DMSO concentrations of the application solutions being compared were 8.1% and 0.25%, respectively
(§6) All stock solutions and applications solutions were visually inspected for compound compatibility prior to application. Spray solutions were applied to the plant material with an overhead Mandel track sprayer equipped with 8002E nozzles calibrated to deliver 187 L/ha over an application area of 0.503 square meters (m^2) at a spray height of 18 to 20 inches (46 to 50 cm) above average plant canopy height. Control plants were sprayed in the same manner with the solvent blank.
(§7) The treated plants and control plants were placed in a greenhouse as described above and watered by sub-irrigation to prevent wash-off of the test compounds. After approximately 3 weeks, the condition of the test plants as compared with that of the untreated plants was determined visually and scored on a scale of 0 to 100 percent where 0 corresponds to no injury or growth inhibition and 100 corresponds to complete kill.
(§8) Colby's equation was used to determine the herbicidal effects expected from the mixtures (Colby, S. R. Calculation of the synergistic and antagonistic response of herbicide combinations. Weeds 1967, 15, 20-22.).
(§9) The following equation was used to calculate the expected activity of mixtures containing two active ingredients, A and B: Expected=A+B−(A×B/100)

DIGSA = format: in vivo, Digitaria sanguinalis (L.) Scop. (large crabgrass)
Source text: Seeds or nutlets of the desired test plant species were planted in a soil matrix prepared by mixing aloam or sandy loam soil (e.g., 28.6 percent silt, 18.8 percent clay, and 52.6 percent sand, with a pH of about 5.8 and an organic matter content of about 1.8 percent) and calcareous grit in an 80 to 20 ratio. The soil matrix was contained in plastic pots with a volume of 1 quart and a surface area of 83.6 square centimeters (cm^2). When required to ensure good germination and healthy plants, a fungicide treatment and/or other chemical or physical treatment was applied. The plants were grown for 8-22 days in a greenhouse with an approximate 14 hour (h) photoperiod which was maintained at about 29° C. during the day and 26° C. during the night. Nutrients (Peters Excel® 15-5-15 5-Ca 2-Mg and iron chelate) were applied in the irrigation solution as needed and water was added on a regular basis. Supplemental lighting was provided with overhead metal halide 1000-Watt lamps as necessary. The plants were employed for testing when they reached the first through fourth true leaf stage.
as §2
Treatment requirements were calculated based upon the rates being tested, the concentration of active ingredient or acid equivalent in the formulation and a 12 milliliter (mL) application volume at a rate of 187 liters per hectare (L/ha).
as §3, §4, §5, §6
as §7, with “kill. […]” for “kill.”

LEFCH = format: in vivo, Leptochloa chinensis (L.) Nees (Chinese sprangletop); conditions: 21 DAA
Procedure: as §1, §2, §3, §4, §5, §6, §7, §8, §9

ECHCG = format: in vivo, Echinochloa crus-galli (L.) P. Beauv. (barnyardgrass)
Procedure: as §1, §2, §3, §4, §5, §6, §7, §8, §9

ECHOR = format: in vivo, Echinochloa oryzoides (Ard.) Fritsch (early watergrass)
Procedure: as §1, §2
For treatments comprised of formulated compounds, measured amounts of compounds were placed individually in 25 mL glass vials and diluted in a volume of 1.25% volume per volume (v/v) Agri-Dex® crop oil concentrate to obtain 12× stock solutions. […]
as §7, with “kill. […]” for “kill.”

CYPIR = format: in vivo, Cyperus iria L. (rice flatsedge); conditions: 21 DAA, r29-30 ester 8/16 g ae/ha alone, r31-33 kasugamycin 17.5/35/70 g ai/ha alone, r34-39 ester 8/16 at each of 17.5, 35, 70
Procedure: as §1, §2, §3, §4, §5, §6, §7, §8, §9

CYPES = format: in vivo, Cyperus esculentus L. (yellow nutsedge); conditions: r45 ester 8 g ae/ha alone, r46-48 kasugamycin 17.5/35/70 g ai/ha alone, r49-51 ester 8 + 17.5/35/70
Procedure: as §1, §2, §3, §4, §5, §6
as §7, with “kill. […]” for “kill.”

[1] = r10-12 ester 4.38/8.75/17.5 g ae/ha alone, r13 difenoconazole 200 g ai/ha alone, r14-16 ester 4.38/8.75/17.5 + 200
[2] = r9-11 acid 5.3/10.6/21.2 g ae/ha alone, r12 difenoconazole 200 g ai/ha alone, r13-15 acid 5.3/10.6/21.2 + 200
[3] = r9-11 ester 8/16/32 g ae/ha alone, r12-14 kasugamycin 17.5/35/70 g ai/ha alone, r15-23 ester 8/16/32 at each of 17.5, 35, 70

CC1COC(Cn2cncn2)(c2ccc(Oc3ccc(Cl)cc3)cc2Cl)O1 (mixture of isomers) [Difenoconazole, cis, trans-3-chloro-4-[4-methyl-2-(1H-1,2,4-triazol-1-ylmethyl)-1,3,dioxolan-2-yl]phenyl 4-chlorophenyl ether, reference compound]
0%: Visual Weed Control (%) - 21 DAA IPOHE Obs (IPOHE; [1]) | Visual Weed Control (%)—21 DAA DIGSA Obs (DIGSA; [2]) | Visual Weed Control (%) - 22 DAA DIGSA Obs (DIGSA; 22 DAA, r22-24 ester 8/16/32 g ae/ha alone, r25-27 difenoconazole 50/100/200 g ai/ha alone, r28-36 ester 8/16/32 at each of 50, 100, 200) | Visual Weed Control (%)—21 DAA LEFCH Obs (LEFCH; [2]) | Visual Weed Control (%) - 21 DAA LEFCH Obs (LEFCH; [1]) | Visual Weed Control (%) - 21 DAA LEFCH Obs (LEFCH; r42-43 ester 16/32 g ae/ha alone, r44-46 difenoconazole 50/100/200 g ai/ha alone, r47-52 ester 16/32 at each of 50, 100, 200) | Visual Weed Control (%)—21 DAA ECHCG Obs (ECHCG; [2]) | Visual Weed Control (%) - 21 DAA ECHCG Obs (ECHCG; r58-60 ester 8/16/32 g ae/ha alone, r61-63 difenoconazole 50/100/200 g ai/ha alone, r64-72 ester 8/16/32 at each of 50, 100, 200) | Visual Weed Control (%) - 21 DAA ECHOR Obs (ECHOR; r78-80 ester 8/16/32 g ae/ha alone, r81-83 difenoconazole 50/100/200 g ai/ha alone, r84-92 ester 8/16/32 at each of 50, 100, 200)

CC1OC(OC2C(O)C(O)C(O)C(O)C2O)C(N)CC1NC(=N)C(=O)O.Cl [Kasugamycin, 1L-1,3,4/2,5,6-1-deoxy-2,3,4,5,6,-pentahydroxycyclohexyl 2-amino-2,3,4,6-tetradeoxy-4-(α-iminoglycino)-α-D-arabino-hexopyranoside hydrochloride hydrate, reference compound]
0%: Visual Weed Control (%)—21 DAA IPOHE Obs (IPOHE; [3]) | Visual Weed Control (%)—21 DAA DIGSA Obs (DIGSA; [3]) | Visual Weed Control (%)—21 DAA LEFCH Obs (LEFCH; [3]) | Visual Weed Control (%)—21 DAA CYPIR Obs (CYPIR) | Visual Weed Control (%)—21 DAA CYPES Obs (CYPES) | Visual Weed Control (%)—21 DAA ECHOR Obs (ECHOR; [3])
